These results are taken from US12297194B2, “N2-phenylpyrimidine-2,4-diamine compounds, and preparation methods and methods of use thereof” (BRIDGE BIOTHERAPEUTICS, INC., priority 2021, dated 2025).

SMILES strings stand for the structures. Some results are limits rather than exact numbers.

Holding throughout (assay type): cell-based, murine
Test [1] deals with Ba/F3 EGFR L858R/T790M/C797S mutants (Homo sapiens, UniProt P00533, T790M/C797S/L858R, cells depend on it). Nature of the test: CellTiter-Glo cell viability, Ba/F3 EGFR L858R/T790M/C797S cells. The note with it: 72 hours, read-out: Ba/F3 EGFR mutant cell (IC50, nM) L/T/C. The procedure, abridged: (§1)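 Luminescent ATP read-out (CellTiter-Glo) after 72 h compound exposure, 0–2000 nM dilution series. Cells plated 2500/well, dosed 24 h post-seeding. IC50 from luminescence curves.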

Test [2] addresses Ba/F3 EGFR Del19/T790M mutants (Homo sapiens, UniProt P00533, T790M, cells depend on it, form not given). Nature of the test: CellTiter-Glo cell viability, Ba/F3 EGFR Del19/T790M cells. The settings on record: 72 hours, read-out: Ba/F3 EGFR mutant cell (IC50, nM) D/T. Summed up: as §1
Test [3] has as its target Ba/F3 EGFR Del19/T790M/C797S mutants (Homo sapiens, UniProt P00533, T790M/C797S, cells depend on it, form not given). Nature of the test: CellTiter-Glo cell viability, Ba/F3 EGFR Del19/T790M/C797S cells. The note with it: 72 hours, read-out: Ba/F3 EGFR mutant cell (IC50, nM) D/T/C. Summed up: as §1
The next test concerns the target Ba/F3 EGFR Wild-type (Homo sapiens, UniProt P00533). Nature of the test: CellTiter-Glo cell viability, Ba/F3 EGFR wild-type cells. The settings on record: 72 hours, read-out: Ba/F3 EGFR mutant cell (IC50, nM) WT. Summed up: as §1
The target in test [4] is Ba/F3 EGFR L858R/C797S mutants (Homo sapiens, UniProt P00533, C797S/L858R, cells depend on it). The experiment in a line: CellTiter-Glo cell viability, Ba/F3 EGFR L858R/C797S cells. The settings on record: 72 hours, read-out: Ba/F3 EGFR mutant cell (IC50, nM) L/C. Summed up: as §1
Test [5] addresses Ba/F3 EGFR Del19/C797S mutants (Homo sapiens, UniProt P00533, C797S, cells depend on it, form not given). Nature of the test: CellTiter-Glo cell viability, Ba/F3 EGFR Del19/C797S cells. The settings on record: 72 hours, read-out: Ba/F3 EGFR mutant cell (IC50, nM) D/C. The procedure, abridged: as §1

Sequence of Ba/F3 EGFR Del19/C797S mutants (P00533 with tags, fused parts or gaps DEL746-750/C797S, form open): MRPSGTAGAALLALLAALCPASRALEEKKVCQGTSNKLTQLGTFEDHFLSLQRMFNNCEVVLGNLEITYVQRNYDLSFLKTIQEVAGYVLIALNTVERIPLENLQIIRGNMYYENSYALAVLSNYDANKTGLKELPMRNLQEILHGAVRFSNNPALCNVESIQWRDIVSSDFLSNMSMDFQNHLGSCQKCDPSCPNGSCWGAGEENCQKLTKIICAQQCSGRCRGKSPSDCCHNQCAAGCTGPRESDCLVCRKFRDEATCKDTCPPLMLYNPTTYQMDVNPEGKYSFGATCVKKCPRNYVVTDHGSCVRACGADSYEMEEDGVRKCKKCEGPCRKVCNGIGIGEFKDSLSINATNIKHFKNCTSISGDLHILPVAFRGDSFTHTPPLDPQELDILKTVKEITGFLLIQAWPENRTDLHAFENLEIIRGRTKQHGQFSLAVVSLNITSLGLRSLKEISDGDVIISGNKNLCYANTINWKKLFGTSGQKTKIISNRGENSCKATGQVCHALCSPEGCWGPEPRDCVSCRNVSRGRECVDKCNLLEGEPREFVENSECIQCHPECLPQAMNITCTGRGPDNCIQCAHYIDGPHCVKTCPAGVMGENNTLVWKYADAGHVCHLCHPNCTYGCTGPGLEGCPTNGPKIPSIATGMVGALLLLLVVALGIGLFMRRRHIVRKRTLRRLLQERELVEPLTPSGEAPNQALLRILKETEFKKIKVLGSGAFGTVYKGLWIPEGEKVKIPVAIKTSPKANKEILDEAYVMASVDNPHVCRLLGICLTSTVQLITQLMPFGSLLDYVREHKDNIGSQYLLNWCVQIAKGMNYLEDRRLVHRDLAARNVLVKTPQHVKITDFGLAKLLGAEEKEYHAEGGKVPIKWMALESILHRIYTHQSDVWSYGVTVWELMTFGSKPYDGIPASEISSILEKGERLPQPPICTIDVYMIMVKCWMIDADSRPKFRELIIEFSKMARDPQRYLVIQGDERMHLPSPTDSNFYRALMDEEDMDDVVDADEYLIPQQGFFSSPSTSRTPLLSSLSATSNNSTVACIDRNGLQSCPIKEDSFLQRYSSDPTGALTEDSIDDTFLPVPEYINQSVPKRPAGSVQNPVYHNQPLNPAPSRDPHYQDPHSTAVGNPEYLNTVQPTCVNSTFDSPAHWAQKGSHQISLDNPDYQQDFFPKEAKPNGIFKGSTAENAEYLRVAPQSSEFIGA
Sequence of Ba/F3 EGFR L858R/C797S mutants (P00533 whole entry C797S/L858R): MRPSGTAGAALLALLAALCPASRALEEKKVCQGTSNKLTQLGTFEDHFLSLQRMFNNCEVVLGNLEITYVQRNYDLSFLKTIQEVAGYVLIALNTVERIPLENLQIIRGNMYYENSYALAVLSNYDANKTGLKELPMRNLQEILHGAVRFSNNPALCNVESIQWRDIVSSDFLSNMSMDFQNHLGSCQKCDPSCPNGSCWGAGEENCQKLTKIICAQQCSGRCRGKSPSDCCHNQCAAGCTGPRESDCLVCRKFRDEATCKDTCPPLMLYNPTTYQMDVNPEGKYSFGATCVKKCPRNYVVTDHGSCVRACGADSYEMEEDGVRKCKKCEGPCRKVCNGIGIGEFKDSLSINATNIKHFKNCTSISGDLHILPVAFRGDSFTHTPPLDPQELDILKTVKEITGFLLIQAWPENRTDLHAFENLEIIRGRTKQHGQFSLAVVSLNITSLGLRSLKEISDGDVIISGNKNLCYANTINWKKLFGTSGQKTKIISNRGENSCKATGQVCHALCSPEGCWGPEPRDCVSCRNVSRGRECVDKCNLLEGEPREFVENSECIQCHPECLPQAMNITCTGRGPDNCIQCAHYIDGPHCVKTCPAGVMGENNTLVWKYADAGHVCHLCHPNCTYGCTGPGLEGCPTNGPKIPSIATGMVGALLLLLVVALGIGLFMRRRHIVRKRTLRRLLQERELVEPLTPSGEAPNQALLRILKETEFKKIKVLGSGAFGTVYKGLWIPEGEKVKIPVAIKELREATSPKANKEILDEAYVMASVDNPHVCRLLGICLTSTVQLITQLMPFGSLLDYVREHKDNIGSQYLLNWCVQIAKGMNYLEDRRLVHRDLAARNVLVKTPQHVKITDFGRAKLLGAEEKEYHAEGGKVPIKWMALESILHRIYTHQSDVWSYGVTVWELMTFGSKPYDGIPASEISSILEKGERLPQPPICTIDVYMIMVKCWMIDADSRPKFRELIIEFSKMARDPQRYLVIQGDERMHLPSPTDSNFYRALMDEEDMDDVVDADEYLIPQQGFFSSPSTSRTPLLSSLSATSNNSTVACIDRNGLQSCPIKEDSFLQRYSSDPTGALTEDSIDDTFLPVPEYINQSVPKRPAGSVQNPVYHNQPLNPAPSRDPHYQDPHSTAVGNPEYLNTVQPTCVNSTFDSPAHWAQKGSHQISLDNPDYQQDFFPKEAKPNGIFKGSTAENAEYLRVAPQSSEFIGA
Sequence of Ba/F3 EGFR L858R/T790M/C797S mutants (P00533 whole entry T790M/C797S/L858R): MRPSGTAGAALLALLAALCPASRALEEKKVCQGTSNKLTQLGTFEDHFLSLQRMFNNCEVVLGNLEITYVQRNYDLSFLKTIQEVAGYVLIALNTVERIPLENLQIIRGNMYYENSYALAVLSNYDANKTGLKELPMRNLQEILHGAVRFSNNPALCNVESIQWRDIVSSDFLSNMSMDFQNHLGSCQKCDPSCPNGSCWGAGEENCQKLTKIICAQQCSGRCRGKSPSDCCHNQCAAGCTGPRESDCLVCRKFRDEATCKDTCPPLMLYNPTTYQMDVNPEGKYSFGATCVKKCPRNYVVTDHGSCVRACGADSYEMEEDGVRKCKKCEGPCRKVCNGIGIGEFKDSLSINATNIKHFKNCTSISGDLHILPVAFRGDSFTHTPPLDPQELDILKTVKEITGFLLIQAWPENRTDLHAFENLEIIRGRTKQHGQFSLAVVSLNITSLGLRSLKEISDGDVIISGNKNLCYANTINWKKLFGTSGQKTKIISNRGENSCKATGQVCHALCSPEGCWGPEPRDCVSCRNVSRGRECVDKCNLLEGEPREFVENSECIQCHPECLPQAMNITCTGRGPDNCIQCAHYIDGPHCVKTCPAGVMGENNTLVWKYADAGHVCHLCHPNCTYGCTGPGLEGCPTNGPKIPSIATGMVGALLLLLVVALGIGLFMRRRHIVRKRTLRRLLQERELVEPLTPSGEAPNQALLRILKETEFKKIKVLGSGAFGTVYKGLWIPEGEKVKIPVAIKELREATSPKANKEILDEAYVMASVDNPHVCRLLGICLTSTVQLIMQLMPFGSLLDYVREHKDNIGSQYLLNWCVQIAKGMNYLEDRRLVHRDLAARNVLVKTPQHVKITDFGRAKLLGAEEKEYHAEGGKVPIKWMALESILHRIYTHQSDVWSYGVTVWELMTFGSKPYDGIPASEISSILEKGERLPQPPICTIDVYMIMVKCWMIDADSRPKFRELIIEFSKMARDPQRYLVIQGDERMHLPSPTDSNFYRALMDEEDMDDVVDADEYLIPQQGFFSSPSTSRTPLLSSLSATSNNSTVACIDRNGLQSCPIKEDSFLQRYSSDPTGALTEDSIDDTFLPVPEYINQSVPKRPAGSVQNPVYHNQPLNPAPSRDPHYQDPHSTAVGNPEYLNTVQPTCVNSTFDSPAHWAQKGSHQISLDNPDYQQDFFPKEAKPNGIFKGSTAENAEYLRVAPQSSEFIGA
Sequence of Ba/F3 EGFR Del19/T790M mutants (P00533 with tags, fused parts or gaps DEL746-750/T790M, form open): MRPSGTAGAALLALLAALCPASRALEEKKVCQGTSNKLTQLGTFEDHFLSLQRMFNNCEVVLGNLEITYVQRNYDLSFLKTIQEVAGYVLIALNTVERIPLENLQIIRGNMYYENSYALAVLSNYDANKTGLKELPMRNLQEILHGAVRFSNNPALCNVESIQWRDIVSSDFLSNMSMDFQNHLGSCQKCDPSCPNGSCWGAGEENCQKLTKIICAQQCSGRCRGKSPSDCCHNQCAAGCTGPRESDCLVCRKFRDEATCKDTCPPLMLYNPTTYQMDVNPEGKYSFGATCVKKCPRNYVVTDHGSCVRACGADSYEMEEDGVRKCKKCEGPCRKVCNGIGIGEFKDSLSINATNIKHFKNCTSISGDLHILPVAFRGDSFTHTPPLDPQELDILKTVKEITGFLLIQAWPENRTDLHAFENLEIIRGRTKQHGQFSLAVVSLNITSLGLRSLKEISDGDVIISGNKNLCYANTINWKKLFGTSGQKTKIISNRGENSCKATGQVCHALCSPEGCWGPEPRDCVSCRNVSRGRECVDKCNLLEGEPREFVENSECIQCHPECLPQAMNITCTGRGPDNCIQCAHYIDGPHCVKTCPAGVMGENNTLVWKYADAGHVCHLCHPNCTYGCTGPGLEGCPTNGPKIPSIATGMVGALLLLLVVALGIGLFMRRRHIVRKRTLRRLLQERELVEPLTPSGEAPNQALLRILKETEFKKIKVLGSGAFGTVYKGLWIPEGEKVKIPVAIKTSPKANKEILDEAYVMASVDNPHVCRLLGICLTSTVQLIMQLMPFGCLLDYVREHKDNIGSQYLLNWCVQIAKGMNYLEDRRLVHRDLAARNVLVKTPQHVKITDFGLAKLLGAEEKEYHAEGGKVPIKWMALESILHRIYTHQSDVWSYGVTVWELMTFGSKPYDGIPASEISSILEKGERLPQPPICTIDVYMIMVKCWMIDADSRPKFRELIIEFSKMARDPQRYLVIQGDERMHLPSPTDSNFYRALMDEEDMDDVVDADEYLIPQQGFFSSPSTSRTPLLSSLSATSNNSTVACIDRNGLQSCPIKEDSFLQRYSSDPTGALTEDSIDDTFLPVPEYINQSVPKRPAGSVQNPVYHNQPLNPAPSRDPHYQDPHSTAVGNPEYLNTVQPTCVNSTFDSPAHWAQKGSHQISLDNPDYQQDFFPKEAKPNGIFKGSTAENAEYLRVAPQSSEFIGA

Turning to `CCc1cc(Nc2ncc(Br)c(Nc3cccc(OC)c3N(C)S(C)(=O)=O)n2)c(OC)cc1N1CCC(N2CCN(C)CC2)CC1` [Example C7, N-(2-((5-bromo-2-((5-ethyl-2-methoxy-4-(4-(4-methylpiperazin-1-yl)piperidin-1-yl)phenyl)amino)pyrimidin-4-yl)amino)-6-methoxyphenyl)-N-methylmethane sulfonamide], the GI50 in test [1] came to 24 nM; in test [2], 6 nM; in test [3] it was 10 nM; on Ba/F3 EGFR Wild-type it was 534 nM; in test [4] it was 52 nM; in test [5], 10 nM.
Consider `COc1cc(N2CCC(N3CCCC3)CC2)c(C)cc1Nc1ncc(Cl)c(Nc2cccc(OC)c2NS(C)(=O)=O)n1` [Example C10, N-(2-((5-chloro-2-((2-methoxy-5-methyl-4-(4-(pyrrolidin-1-yl)piperidin-1-yl)phenyl)amino)pyrimidin-4-yl)amino)-6-methoxyphenyl)methanesulfonamide], for which the GI50 in test [1] was determined as 45 nM; in test [2], 6 nM; in test [3], 9 nM; on Ba/F3 EGFR Wild-type, 404 nM; in test [4], 61 nM; in test [5] it was 9 nM.
On to `COc1cc(N2CCOCC2)c(C)cc1Nc1ncc(Br)c(Nc2ccc3nccnc3c2S(C)(=O)=O)n1` [Example D1, 5-bromo-N2-(2-methoxy-5-methyl-4-morpholinophenyl)-N4-(5-(methylsulfonyl)quinoxalin-6-yl)pyrimidine-2,4-diamine], for which the GI50 in test [1] is 536 nM; in test [2] it was 477 nM; in test [3] it was 959 nM; at Ba/F3 EGFR Wild-type, above 2000 nM; in test [4] it was 1120 nM; in test [5] it was 1010 nM.
As for `COc1cc(N2CCC(N3CCOCC3)CC2)c(C)cc1Nc1ncc(Br)c(Nc2ccc3nccnc3c2NS(C)(=O)=O)n1` [Example A23, N-(6-((5-bromo-2-((2-methoxy-5-methyl-4-(4-morpholinopiperidin-1-yl)phenyl)amino)pyrimidin-4-yl)amino)quinoxalin-5-yl)methanesulfonamide], the GI50 in test [1] came to 49 nM; in test [2] it was 41 nM; in test [3], 16 nM; on Ba/F3 EGFR Wild-type it was 416 nM; in test [4] it was 114 nM; in test [5] it was 51 nM.
With `CCc1cc(Nc2ncc(Br)c(Nc3ccc4nccnc4c3NS(C)(=O)=O)n2)c(OC)cc1N1CCC(N2CCCC2)CC1` [Example A33, N-(6-((5-bromo-2-((5-ethyl-2-methoxy-4-(4-(pyrrolidin-1-yl)piperidin-1-yl)phenyl)amino)pyrimidin-4-yl)amino)quinoxalin-5-yl)methanesulfonamide], the GI50 is 18 nM in test [1]; 8 nM in test [2]; 6 nM in test [3]; above 2000 nM at Ba/F3 EGFR Wild-type; 57 nM in test [4]; 4 nM in test [5].
As for `COc1cc(N2CCNCC2)ccc1Nc1ncc(Cl)c(Nc2ccc3nccnc3c2NS(C)(=O)=O)n1` [Example B16, N-(6-((5-chloro-2-((2-methoxy-4-(piperazin-1-yl)phenyl)amino)pyrimidin-4-yl)amino)quinoxalin-5-yl)methanesulfonamide], the GI50 in test [1] was 823 nM; in test [2], 402 nM; in test [3] it was 741 nM; on Ba/F3 EGFR Wild-type, 1890 nM; in test [4], 778 nM; in test [5], 361 nM.
As to `CCc1cc(Nc2ncc(Br)c(Nc3ccc4nccnc4c3N(C)S(C)(=O)=O)n2)c(OC)cc1N1CCN(C2CCN(C)CC2)CC1` [Example A49, N-(6-((5-bromo-2-((5-ethyl-2-methoxy-4-(4-(1-methylpiperidin-4-yl)piperazin-1-yl)phenyl)amino)pyrimidin-4-yl)amino)quinoxalin-5-yl)-N-methylmethane sulfonamide], the GI50 in test [1] was 64 nM; in test [2], 4 nM; in test [3] it was 4 nM; at Ba/F3 EGFR Wild-type it was 243 nM; in test [4] it was 15 nM; in test [5], 10 nM.
As to `CCc1cc(Nc2ncc(Cl)c(Nc3ccc4nccnc4c3NS(C)(=O)=O)n2)c(OC)cc1N1CCC(N2CCCC2)CC1` [Example A34, N-(6-((5-chloro-2-((5-ethyl-2-methoxy-4-(4-(pyrrolidin-1-yl)piperidin-1-yl)phenyl)amino)pyrimidin-4-yl)amino)quinoxalin-5-yl)methanesulfonamide], the GI50 in test [1] was 13 nM; in test [2], 5 nM; in test [3] it was 4 nM; on Ba/F3 EGFR Wild-type, above 2000 nM; in test [4], 16 nM; in test [5], 1 nM.
Turning to `COc1cc(N2CCC(N(C)C)CC2)c(C)cc1Nc1ncc(Br)c(Nc2ccc3nccnc3c2N(C)S(C)(=O)=O)n1` [Example B7, N-(6-((5-bromo-2-((4-(4-(dimethylamino)piperidin-1-yl)-2-methoxy-5-methylphenyl)amino)pyrimidin-4-yl)amino)quinoxalin-5-yl)-N-methylmethanesulfonamide], the GI50 in test [1] is 33 nM; in test [2], 21 nM; in test [3] it was 8 nM; at Ba/F3 EGFR Wild-type, 595 nM; in test [4], 98 nM; in test [5], 34 nM.
As for `CCc1cc(Nc2ncc(Cl)c(Nc3ccc4c(c3NS(C)(=O)=O)OCCO4)n2)c(OC)cc1N1CCC(N2CCOCC2)CC1` [Example C15, N-(6-((5-chloro-2-((5-ethyl-2-methoxy-4-(4-morpholinopiperidin-1-yl)phenyl)amino)pyrimidin-4-yl)amino)-2,3-dihydrobenzo[b][1,4]dioxin-5-yl)methanesulfonamide], the GI50 in test [1] is 30 nM; in test [2], 8 nM; in test [3], 14 nM; on Ba/F3 EGFR Wild-type, 638 nM; in test [4], 44 nM; in test [5], 13 nM.
Regarding `CCc1cc(Nc2ncc(Br)c(Nc3ccc4nccnc4c3N(C)S(C)(=O)=O)n2)c(OC)cc1N1CC2(CCN2C(C)C)C1` [Example B31, N-(6-((5-bromo-2-((5-ethyl-4-(1-isopropyl-1,6-diazaspiro[3.3]heptan-6-yl)-2-methoxyphenyl)amino)pyrimidin-4-yl)amino)quinoxalin-5-yl)-N-methylmethanesulfonamide], the GI50 in test [1] is 43 nM; in test [2], 8 nM; in test [3], 6 nM; at Ba/F3 EGFR Wild-type, 482 nM; in test [4] it was 43 nM; in test [5] it was 15 nM.
Turning to `CCc1cc(Nc2ncc(Cl)c(Nc3ccc4nccnc4c3N(C)S(C)(=O)=O)n2)c(OC)cc1N1CC2(C1)CN(C(C)C)C2` [Example B27, N-(6-((5-chloro-2-((5-ethyl-4-(6-isopropyl-2,6-diazaspiro[3.3]heptan-2-yl)-2-methoxyphenyl)amino)pyrimidin-4-yl)amino)quinoxalin-5-yl)-N-methylmethanesulfonamide], the GI50 in test [1] worked out at 40 nM; in test [2], 25 nM; in test [3], 5 nM; at Ba/F3 EGFR Wild-type, 359 nM; in test [4] it was 35 nM; in test [5], 18 nM.
On to `COc1cc(N2CCC(N3CCCC3)CC2)c(C)cc1Nc1ncc(Cl)c(Nc2ccc3nccnc3c2NS(C)(=O)=O)n1` [Example A30, N-(6-((5-chloro-2-((2-methoxy-5-methyl-4-(4-(pyrrolidin-1-yl)piperidin-1-yl)phenyl)amino)pyrimidin-4-yl)amino)quinoxalin-5-yl)methanesulfonamide], for which the GI50 in test [1] worked out at 23 nM; in test [2], 31 nM; in test [3], 100 nM; on Ba/F3 EGFR Wild-type it was 266 nM; in test [4] it was 83 nM; in test [5], 28 nM.
Regarding `CCc1cc(Nc2ncc(Cl)c(Nc3ccc(OC)cc3NS(C)(=O)=O)n2)c(OC)cc1N1CCC(N2CCOCC2)CC1` [Example C14, N-(2-((5-chloro-2-((5-ethyl-2-methoxy-4-(4-morpholinopiperidin-1-yl)phenyl)amino)pyrimidin-4-yl)amino)-5-methoxyphenyl) methanesulfonamide], the GI50 in test [1] was 21 nM; in test [2], 2 nM; in test [3], 4 nM; at Ba/F3 EGFR Wild-type it was 415 nM; in test [4], 22 nM; in test [5], 4 nM.
`COc1cc(N2CCC(N3CCN(C)CC3)CC2)c(C)cc1Nc1ncc(Br)c(Nc2cccc(OC)c2NS(C)(=O)=O)n1` [Example C1, N-(2-((5-bromo-2-((2-methoxy-5-methyl-4-(4-(4-methylpiperazin-1-yl)piperidin-1-yl)phenyl)amino)pyrimidin-4-yl)amino)-6-methoxyphenyl)methanesulfonamide]: the GI50 was determined as 12 nM in test [1]; 6 nM in test [2]; 13 nM in test [3]; 408 nM on Ba/F3 EGFR Wild-type; 63 nM in test [4]; 18 nM in test [5].
